# Read-outs that look alike come from different tables or passages of the source.
# Assays:
# T-cells = assay: Toxicity of detergents to T-cells; format: cell-based
# Description: A number of detergents were studied for their ability to solubilize human HLA-DR2 and MHC-peptide complexes. In addition the complexes prepared in the detergents were assayed for activity. A summary of structural and physical characteristics of various detergents used for solubilization of HLA-DR2 is presented in FIG. 1.
# [1] = Aggregation assay by size-exclusion HPLC and SDS-PAGE; format: physicochemical; conditions: DM concentration below 0.05%, FIG. 4, 5
# Description: Three non-ionic detergents (DM, OG, and Tween-80) were tested. The experiments were carried out as generally described in U.S. Pat. Nos. 5,130,297, 5,194,425, 5,260,422 and 5,284,935, all of which are incorporated herein by reference. Briefly, HLA-DR2 was purified from EBV-transformed lymphoblastoid cells [GM03107] obtained from the National Institute of General Medical Sciences human genetic mutant cell repository (Corinell Institute of Medical Research, NJ.). A triton X-100 cell lysate was prepared and applied to a L243 coupled sepharose-4B column and the bound DR2 was eluted in phosphate buffer containing 0.05% n-dodecyl β-D-maltoside (DM) detergent at pH 11.3. Fractions were immediately neutralized with 20% monobasic phosphate and the DR2 pool was collected through a DEAE ion exchange column in 20 mM phosphate buffer containing 0.5 M NaCl and 0.05% DM, pH 6.0. The flow through purified protein solution from the DEAE column was neutralized with 10% tribasic sodium phosphate, filtered through a 180 kD membrane and concentrated to 1 mg/ml. The final DR2 preparation was characterized by 13.5% SDS polyacrylamide gel electrophoresis followed by silver staining.
# To prepare the DR2-peptide complex, purified DR2 was dialyzed against 100 mM citrate buffer pH 6.0 containing 0.05% DM for 24 hours at 4° C. prior to the addition of MBP(83-102)Y^83 peptide. […]
# HLA-DR2 = assay: Occupancy of MHC molecules with peptide (loading); format: binding, human; conditions: DR2 and MBP(83-102)Y^83 complexes prepared in the named detergent
# Description: To prepare the DR2-peptide complex, purified DR2 was dialyzed against 100 mM citrate buffer pH 6.0 containing 0.05% DM for 24 hours at 4° C. prior to the addition of MBP(83-102)Y^83 peptide. The reaction mixture was incubated at 37° C. for 96 hours and free peptide was removed by Sephacryl S200 gel filtration.
# As noted in the figure, the occupancy of the MHC molecules (i.e., proportion of the molecules complexed with peptide) was 90% in DM, 40% in octylglucoside and 76% in Tween-80).
# mouse [2] = assay: GLP Toxicology: Acute Range-finding; format: in vivo; conditions: i.v., 400 ug/kg, bolus
# Description: (§1) Safety and toxicity studies were carried out for the intravenous administration of dodecyl-β-D-maltoside in various animal models.
# mouse [3] = assay: GLP Toxicology: Subacute - full histo; format: in vivo; conditions: i.v., QD14
# Description: as §1
# mouse [4] = assay: Safety Pharmacology: Neuropharm profile; format: in vivo; conditions: i.v., bolus
# Description: as §1
# rat = assay: Safety Pharmacology: Diuretic Assay; format: in vivo; conditions: i.v., bolus
# Description: as §1
# mouse [5] = assay: Safety Pharmacology: Barbit Sleep Potent; format: in vivo; conditions: i.v., bolus
# Description: as §1
# dog = assay: Safety Pharmacology: Cardiovasc Effects; format: in vivo; conditions: i.v.
# Description: as §1
# various animal models = assay: Safety and toxicity studies, intravenous administration in various animal models; format: in vivo; conditions: i.v. administration at various tested doses, summary of Table 1
# Description: as §1
molecule,measurement,setting,value
C[C@H](CCC(=O)NCCC[N+](C)(C)CCCS(=O)(=O)[O-])[C@H]1CC[C@H]2[C@@H]3[C@H](O)C[C@@H]4C[C@H](O)CC[C@]4(C)[C@H]3C[C@H](O)[C@]12C [CHAPS],toxicity to T-cells,T-cells; detergents for solubilization of HLA-DR2,toxic to T-cells
"CCCCCCCCCCCCO[C@@H]1O[C@H](CO)[C@@H](O[C@H]2O[C@H](CO)[C@@H](O)[C@H](O)[C@H]2O)[C@H](O)[C@H]1O [DM, dodecyl β-D maltoside]",aggregation level of DR2,[1],increased aggregation level of DR2
same,occupancy of the MHC molecules (proportion of the molecules complexed with peptide),HLA-DR2,90%
same,"Results, Acute Range-finding",mouse [2],poss kindey cortical
same,"Results, Subacute - full histo",mouse [3]; 4 ug/kg,No Eff @ necr/clin-path
same,"Results, Subacute - full histo",mouse [3]; 40 ug/kg,No Effects
same,"Results, Subacute - full histo",mouse [3]; 400 ug/kg,D14 Spleen wt slightly
same,"Results, Neuropharm profile",mouse [4]; 10 ug/kg,No Effects
same,"Results, Neuropharm profile",mouse [4]; 100 ug/kg,No Effects
same,"Results, Diuretic Assay",rat; 10 ug/kg,No Effects
same,"Results, Diuretic Assay",rat; 100 ug/kg,No Effects
same,"Results, Barbit Sleep Potent",mouse [5]; 10 ug/kg,No Effects
same,"Results, Barbit Sleep Potent",mouse [5]; 100 ug/kg,No Effects
same,"Results, Cardiovasc Effects","dog; 10 ug/kg, bolus",No Effects
same,"Results, Cardiovasc Effects",dog; up if NOEL to 100 ug/kg,No Effects
same,toxic effects,various animal models,no toxic effects
CCCCCCCC/C=C\CCCCCCCC(=O)OCCOCC(OCCO)C1OCC(OCCO)C1OCCO (stereo not shown) [Tween-80],occupancy of the MHC molecules (proportion of the molecules complexed with peptide),HLA-DR2,76%
"CCCCCCCCO[C@@H]1O[C@H](CO)[C@@H](O)[C@H](O)[C@H]1O [octylglucoside, octyl glucoside]",occupancy of the MHC molecules (proportion of the molecules complexed with peptide),HLA-DR2,40%
Pluronic F-127,toxicity to T-cells,T-cells,toxic to T-cells

# From patent publication US20030118594A1, “STABLE FORMULATIONS OF MHC-PEPTIDE COMPLEXES” (priority 1995, published 2003)
